The source of these data is the NIST ThermoML archive (doi:10.1016/j.jct.2016.12.021).

± gives the expanded uncertainty stated by the source.

The conditions of the data set: Liquid, Closed cell (Static) method.

As to `CCC` [propane], the “vapor or sublimation pressure” value (293.18 K) is 836.8 ± 2.4 kPa; the “vapor or sublimation pressure” value (298.15 K) is reported as 950.8 ± 2.8 kPa; the “vapor or sublimation pressure” value (313.15 K) is on record as 1380.1 ± 10 kPa; the “vapor or sublimation pressure” value (323.15 K) was found to be 1713 ± 4.5 kPa; the “vapor or sublimation pressure” value (353.15 K) was determined as 3135.4 ± 6.2 kPa.
On to `FC(F)F` [trifluoromethane], for which the “vapor or sublimation pressure” value by setting is: (293.18 K) 4171.7 ± 11 kPa; (298.15 K) 4709.3 ± 12 kPa.
